{"source": "patent US20230075822A1", "about": "“USE OF CASTALAGIN OR ANALOGS THEREOF FOR ANTI-CANCER EFFICACY AND TO INCREASE THE RESPONSE TO IMMUNE CHECKPOINT INHIBITORS” (THE ROYAL INSTITUTION FOR THE ADVANCEMENT OF …, priority 2020, published 2023)", "system": "CD8^+ T cells", "test": "Flow cytometry immune profiling of TILs, MCA-205 tumor model", "type": "in vivo, C57BL/6 mice", "conditions": "SPF mice, castalagin experiment", "experimental": "FIGS. 7A-C are graphs showing the results of immune cell profiling by flow cytometry in the murine MCA-205 (FIGS. 7A-B) or E0771 (FIG. 7C) tumor model treated with anti-PD-1 and/or CC. The tumors and the spleens were harvested 9 days or 19 days after the first injection of anti-PD-1 mAb into mice bearing MCA-205 or E0771 tumors, respectively. Excised tumors were cut into small pieces and digested in RPMI medium containing Liberase 25 μg/mL (Roche) and DNase1 at 150 Ul/mL (Roche) for 30 minutes at 37° C. and then crushed and filtered twice using 100 and 70 μm cell strainers (Becton & Dickinson). Spleens were crushed in RPMI medium and subsequently filtered through a 100 μm cell strainer. Two million tumor cells or splenocytes were pre-incubated with purified anti-mouse CD16/CD32 (clone 93; eBioscience) for 30 minutes at 4° C., before membrane staining (CD45, CD3, CD4, CD8, PD1, PDL1, ICOS, CXCR3, CCR9, CD45RB, CD62L, CD44). For intracellular staining, the Foxp3 staining kit (eBioscience) was used. Dead cells were excluded using the Live/Dead Fixable aqua blue dead cell stain kit (Life Technologies). […] FIG. 7C is a graph showing the activation of intratumoral CD8^+ T cells (as assessed by MFI of ICOS^+CD8^+ T cells by flow cytometry) in TILs in the E0771 tumor model post-treatment with CC +/−αPD-1. […]"}
{"smiles": "O=C1OC[C@H]2OC(=O)c3cc(O)c(O)c(O)c3-c3c(O)c(O)c(O)c4c3C(=O)O[C@H]([C@H]3OC(=O)c5c-4c(O)c(O)c(O)c5[C@@H]3O)[C@@H]2OC(=O)c2cc(O)c(O)c(O)c2-c2c1cc(O)c(O)c2O", "note": "[castalagin, Castalagin]", "values": [{"measurement": "TCM CD8^+ T cells (CD45RB^−CD62L^+) in TILs", "value": "upregulation of Tom CD8^+ T cells"}]}
